The values below come from publication PMC12501607, “Novel prolyl endopeptidase inhibitor from Myricaria germanica alleviates steatohepatitis” (RSC Advances, 2025).

Each structure is given as a SMILES string.

Assay [1] concerns the target T1, Prolyl endopeptidase (PREP) (Homo sapiens, UniProt P48147).
T1 sequence (P48147 1-710): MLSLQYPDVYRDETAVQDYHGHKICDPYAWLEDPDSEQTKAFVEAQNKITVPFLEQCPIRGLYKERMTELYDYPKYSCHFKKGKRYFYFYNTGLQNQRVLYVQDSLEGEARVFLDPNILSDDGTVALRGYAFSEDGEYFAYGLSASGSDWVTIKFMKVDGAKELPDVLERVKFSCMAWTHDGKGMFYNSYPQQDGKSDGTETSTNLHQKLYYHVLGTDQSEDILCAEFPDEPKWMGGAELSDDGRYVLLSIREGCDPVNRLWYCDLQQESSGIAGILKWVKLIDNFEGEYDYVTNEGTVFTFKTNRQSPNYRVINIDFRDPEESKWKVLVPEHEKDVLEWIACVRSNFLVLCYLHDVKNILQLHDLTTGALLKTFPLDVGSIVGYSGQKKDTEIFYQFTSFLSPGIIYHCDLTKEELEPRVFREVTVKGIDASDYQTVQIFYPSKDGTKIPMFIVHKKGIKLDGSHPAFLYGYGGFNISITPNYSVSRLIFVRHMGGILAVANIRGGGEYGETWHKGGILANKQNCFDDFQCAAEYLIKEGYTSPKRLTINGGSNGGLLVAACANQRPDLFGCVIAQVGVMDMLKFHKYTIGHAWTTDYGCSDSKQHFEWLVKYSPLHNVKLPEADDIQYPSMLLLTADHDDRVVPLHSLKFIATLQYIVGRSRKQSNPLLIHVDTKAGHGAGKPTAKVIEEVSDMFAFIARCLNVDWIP
Briefly: Chromogenic enzyme assay (Z-Gly-Pro-pNA, […] nm) with recombinant human PREP; Lineweaver-Burk kinetics. The class given is biochemical.

The target of assay [2] is T1, Prolyl endopeptidase (PREP). The assay can be described thus: Chromogenic enzyme assay (Z-Gly-Pro-pNA, […] nm) with recombinant human PREP. The assay is classed as biochemical.

As to `CCCCCCCCCCCCCCCCCCCCCCCCCC1CCCCC1O` (racemic) [PREPi, (±)-2-pentacosylcyclohexanol], the 50% inhibitory concentration (IC50) (as a rule, the midpoint of a concentration-inhibition curve) in assay [1] is 20 ± 1.6 µM.

`COc1cc(C(=O)O)cc(OC)c1O` [Fr-2, syringic acid]: the IC50 in assay [2] was found to be 155 ± 1.8 µM.
